Reference: DBAASP
Converted amounts (≈) assume the structure as drawn.

Legend:
Assay in all cases: ≥ marks a high value that may be exact or a test limit, other limits are often not marked, values filed in µg/mL are converted to µM
[1] = system: Proteus vulgaris KCTC 2433
[2] = system: Staphylococcus aureus KCTC 1621
[3] = system: Bacillus subtilis KCTC 1918
[4] = system: Candida albicans TIMM 1768
[5] = system: Salmonella typhimurium KCTC 1926
[6] = system: Saccharomyces cerevisiae KCTC 7296
[7] = system: Trichosporon beigelii KCTC 7707
[8] = system: Staphylococcus aureus ATCC 6538
[9] = system: Bacillus subtilis CCT 2576
[10] = system: Escherichia coli ATCC 25922
[11] = system: Pseudomonas aeruginosa ATCC 15422
Pyricularia grisea PR-9 = system: Pyricularia grisea PR-9
[12] = system: Penicillium expansum PHI-65
[13] = system: Fusarium oxysporum CECT 2866
[14] = system: Aspergillus nidulans biA1
[15] = system: Escherichia coli DH5alpha
Botrytis cinerea #8 = system: Botrytis cinerea #8
[16] = system: Penicillium digitatum PHI-26
[17] = system: Bacillus subtilis CECT 498
[18] = system: Penicillium italicum PHI-1
Penicillium sp. PHI-8 = system: Penicillium sp. PHI-8
Alternaria sp. PHI-44 = system: Alternaria sp. PHI-44
[19] = system: Saccharomyces cerevisiae FY1679
Staphylococcus capitis 1 = system: Staphylococcus capitis 1
Bacillus megaterium Bm11 = system: Bacillus megaterium Bm11
[20] = system: Staphylococcus aureus Cowan 1
[21] = system: Candida albicans ATCC 10231
[22] = system: Yersinia pseudotuberculosis YPIII
[23] = system: Salmonella enterica subsp. enterica serovar Enteritidis LA5
[24] = system: Listeria monocytogenes EGD
[25] = system: Staphylococcus haemolyticus DSM 20263
[26] = system: Staphylococcus aureus ATCC 29740
[27] = system: Salmonella enterica subsp. enterica serovar Typhimurium ATCC 14028
[28] = system: Salmonella enterica subsp. enterica serovar Enteritidis ATCC 13076
Escherichia coli = system: Escherichia coli
[29] = system: Enterobacter cloacae ATCC 13047
Bacillus subtilis = system: Bacillus subtilis
[30] = system: Bacillus cereus ATCC 14579
[31] = system: Staphylococcus saprophyticus ATCC 19701
[32] = system: Pseudomonas aeruginosa ATCC 25010
[33] = system: Klebsiella pneumoniae ATCC 13882

Work on `CC[C@H](C)[C@H](NC(=O)CNC(=O)[C@H](CC(C)C)NC(=O)[C@H](CCCN=C(N)N)NC(=O)[C@H](CCCCN)NC(=O)[C@H](Cc1ccccc1)NC(=O)[C@@H](NC(=O)[C@H](CCCCN)NC(=O)[C@H](CCCCN)NC(=O)[C@H](C)N)C(C)C)C(=O)NCC(=O)N[C@@H](C)C(=O)N[C@H](C(=O)N[C@@H](CC(C)C)C(=O)N[C@@H](Cc1c[nH]c2ccccc12)C(=O)N[C@H](C(=O)N[C@@H](CC(C)C)C(=O)N[C@H](C(=O)N[C@H](C(=O)NCC(=O)O)[C@@H](C)O)[C@@H](C)O)C(C)C)C(C)C` [AKKVFKRLGIGAVLWVLTTG] yielded an MIC [1] of 12.5 µM (≈ 27 µg/mL), an MIC [2] of 3.12 µM (≈ 6.73 µg/mL) and an MIC [3] of 3.12 µM (≈ 6.73 µg/mL). The MIC [4] was at least 50 µM, the MIC [5] was 0.78 µM (≈ 1.68 µg/mL) and the MIC [6] was at least 50 µM. The MIC [7] was at least 50 µM.
For `CC[C@H](C)[C@H](N)C(=O)N[C@@H](CC(N)=O)C(=O)N[C@@H](Cc1c[nH]c2ccccc12)C(=O)N[C@@H](CCCCN)C(=O)N[C@@H](CCCCN)C(=O)N[C@@H](CC(C)C)C(=O)N[C@@H](CC(C)C)C(=O)N[C@@H](CC(=O)O)C(=O)N[C@@H](C)C(=O)N[C@@H](C)C(=O)N[C@@H](CCCCN)C(=O)N[C@@H](CCC(N)=O)C(=O)N[C@H](C(=O)N[C@@H](CC(C)C)C(N)=O)[C@@H](C)CC` [INWKKLLDAAKQIL], the MIC [8] was 7.8 µM (≈ 12.9 µg/mL), the MIC [9] was 2.96 µM (≈ 4.9 µg/mL) and the MIC [10] was 5.8 µM (≈ 9.59 µg/mL). The MIC [11] was 28.3 µM (≈ 46.8 µg/mL).
`CSCC[C@H](NC(=O)[C@H](CCCN=C(N)N)NC(=O)[C@H](Cc1c[nH]c2ccccc12)NC(=O)[C@H](CCC(N)=O)NC(=O)[C@H](Cc1c[nH]c2ccccc12)NC(=O)[C@H](CCCN=C(N)N)NC(=O)[C@H](CCCN=C(N)N)NC(=O)[C@H](CS)NC(=O)[C@H](CCCCN)NC(=O)[C@H](Cc1ccccc1)NC(C)=O)C(=O)N[C@@H](CCCCN)C(=O)N[C@@H](CCCCN)C(=O)N[C@@H](CC(C)C)C(=O)NCC(=O)N[C@@H](C)C(N)=O` [FKCRRWQWRMKKLGA] gave an MIC (Pyricularia grisea PR-9) of at least 32 µM, an MIC [12] of 8 µM (≈ 16.3 µg/mL) and an MIC [13] of 8 µM (≈ 16.3 µg/mL). It also gave an MIC [14] of 4 µM (≈ 8.14 µg/mL), an MIC [15] of 16 µM (≈ 32.6 µg/mL) and an MIC (Botrytis cinerea #8) of 16 µM (≈ 32.6 µg/mL). It also gave an MIC [16] of 4 µM (≈ 8.14 µg/mL), an MIC [17] of 16 µM (≈ 32.6 µg/mL) and an MIC [18] of 4 µM (≈ 8.14 µg/mL). It also gave an MIC (Penicillium sp. PHI-8) of 8 µM (≈ 16.3 µg/mL), an MIC (Alternaria sp. PHI-44) of 16 µM (≈ 32.6 µg/mL) and an MIC [19] of at least 32 µM.
`CC[C@H](C)[C@H](NC(=O)CNC(=O)[C@H](CO)NC(=O)[C@H](CC(C)C)NC(=O)[C@@H](NC(=O)[C@H](CCCN=C(N)N)NC(=O)CNC(=O)[C@@H](NC(=O)[C@H](CC(C)C)NC(=O)[C@@H]1CCCN1C(=O)[C@H](CC(C)C)NC(=O)[C@@H](N)Cc1ccccc1)[C@@H](C)CC)C(C)C)C(=O)N[C@@H](C)C(N)=O` [FLPLIGRVLSGIA] showed an MIC (Staphylococcus capitis 1) of at least 40 µM, an MIC (Bacillus megaterium Bm11) of 20 µM (≈ 27.1 µg/mL) and an MIC [10] of over 40 µM. For the same molecule, the MIC [20] was at least 40 µM, the MIC [21] was 40 µM (≈ 54.2 µg/mL) and the MIC [22] was at least 40 µM.
For `CC[C@H](C)[C@H](NC(=O)[C@H](CCCN=C(N)N)NC(=O)[C@H](CCCCN)NC(=O)[C@@H]1CSSC[C@@H]2NC(=O)[C@H](CCCCN)NC(=O)[C@H](CC(C)C)NC(=O)[C@H](Cc3ccccc3)NC(=O)[C@H](C)NC(=O)[C@@H]3CSSC[C@H](NC(=O)[C@H](CCCCN)NC(=O)CNC(=O)[C@H](CO)NC(=O)[C@H]([C@@H](C)CC)NC(=O)[C@H](CC(C)C)NC(=O)[C@H]([C@@H](C)O)NC(=O)[C@H](CC(C)C)NC(=O)[C@H](CO)NC(=O)[C@@H]4CCCN4C2=O)C(=O)N[C@@H](CO)C(=O)N[C@@H](CCCN=C(N)N)C(=O)N[C@@H](Cc2ccccc2)C(=O)N[C@@H](Cc2ccc(O)cc2)C(=O)N[C@@H](CC(C)C)C(=O)N[C@@H](CSSC[C@H](NC(=O)[C@H](CC(=O)O)NC(=O)[C@H](CO)NC(=O)[C@H](CCCCN)NC(=O)[C@H](CCCN=C(N)N)NC(=O)CN)C(=O)N[C@@H](Cc2ccccc2)C(=O)N[C@@H](CCCN=C(N)N)C(=O)N[C@@H](CCCCN)C(=O)N[C@@H](CO)C(=O)NCC(=O)N[C@@H](Cc2ccccc2)C(=O)N3)C(=O)N1)C(=O)N[C@@H](Cc1c[nH]c2ccccc12)C(N)=O` [GRKSDCFRKSGFCAFLKCPSLTLISGKCSRFYLCCKRIW], the MIC [23] was 0.147 µM (≈ 0.662 µg/mL), the MIC [24] was 0.236 µM (≈ 1.06 µg/mL) and the MIC [25] was 0.13 µM (≈ 0.584 µg/mL). The MIC [26] was 0.06 µM (≈ 0.27 µg/mL), the MIC [27] was 0.139 µM (≈ 0.624 µg/mL) and the MIC [28] was 0.163 µM (≈ 0.732 µg/mL). It also gave an MIC (Escherichia coli) of 0.256 µM (≈ 1.15 µg/mL), an MIC [29] of 0.177 µM (≈ 0.799 µg/mL) and an MIC (Bacillus subtilis) of 0.187 µM (≈ 0.844 µg/mL). It also gave an MIC [30] of 0.208 µM (≈ 0.938 µg/mL), an MIC [31] of 0.147 µM (≈ 0.662 µg/mL) and an MIC [32] of 0.244 µM (≈ 1.1 µg/mL). It also gave an MIC [33] of 0.0872 µM (≈ 0.393 µg/mL).
